According to article PMC5845353, “The selective cathepsin K inhibitor MIV-711 attenuates joint pathology in experimental animal models of osteoarthritis” (Journal of Translational Medicine, 2018):
Marks after values point to notes of the source that are not given here.

What was measured:
[1] = tested on: rabbits subjected to anterior cruciate ligament transection (ACLT); assay: Rabbit ACLT study, µCT of subchondral bone plate; assay type: in vivo
Excerpt: (§1) The animals were acquired following review and approval by the Institutional Animal Care and Use Committee (IACUC) at Numira (Salt Lake City, UT). The protocol was also reviewed and approved by the IACUC at Ibex Preclinical Research Inc. (Logan, UT). Male, New Zealand White rabbits (n = 32) were purchased from the Western Oregon Rabbit Co. (Philomath, OR). The animals were approximately 9 months old, weighed 3.7–4.5 kg at the start of the experiment and were randomized into four treatment groups based on body weight.
(§2) Pre-operative butorphanol (0.5–1.0 mg/kg, i.m.) for analgesia and glycopyrrolate (~ 0.1 mg/kg i.m.) were administered up to 15 min prior to induction. Anesthesia was induced by a mixture of ketamine (20–40 mg/kg, i.m.) and xylazine (5–10 mg/kg, i.m.), followed by placement of an endotracheal tube. General anesthesia was maintained with isoflurane. Perioperative cefazolin (40 mg/kg, i.v.) was administered, and […] (0.2 mg/kg, i.v.) was administered to reverse the effects of xylazine after endotracheal intubation was complete. A fentanyl patch (25 µg/h) was placed on a clipped area of the skin to provide post-operative analgesia. An incision of 1.5–2.5 cm was made in the skin over the medial side of the right knee under aseptic conditions. The patella was dislocated laterally and the knee placed in full flexion. The anterior cruciate ligament (ACL) was visualized and transected with an appropriate blade. In sham animals, the ACL was visualized but not transected. The joint was irrigated with sterile saline and closed. The muscle and skin were closed with suture and/or surgical glue. Butorphanol (0.5–1 mg/kg, i.m.) was administered after extubation to provide supplemental analgesia. The animals were then individually housed in stainless steel or plastic cages.
(§3) Starting 1 week after sham operation or ACLT, animals were dosed daily for 7 weeks by oral gavage with either MIV-711 (synthesized by Medivir and given as a suspension in 1% Methocel A4C in water) or vehicle (1% Methocel A4C in water) at a dose volume of 4 mL/kg. The four treatment groups (n = 7 in each group) were: (1) sham + vehicle; (2) ACLT + vehicle; (3) ACLT + MIV-711, 30 µmol/kg (low dose) and (4) ACLT + MIV-711, 100 µmol/kg (high dose).
(§4) Femora and tibias from all animals were subjected to µCT scanning without and with contrast reagent, to visualize bone and cartilage, respectively. Samples were scanned on a high-resolution, volumetric µCT scanner (μCT40, ScanCo Medical, Zurich, CH). The image data was acquired with the following parameters: 36 μm isotropic voxel resolution at 300 ms exposure time, 2000 views and 1 frame per view. Each sample was scanned twice, once for acquiring bone data and once for soft tissue data. After the bone scans, the knees were stained using hexabrix for contrast-enhanced imaging of the cartilage. The µCT-generated DICOM files were used to analyze the samples and to create volume renderings of the regions of interest (ROI). The raw data files were converted into a file format compatible with the segmentation software VHLab (Numira). VHLab was used for segmenting out the regions of interest (osteophyte, cartilage, and subchondral bone) for the femur and tibia of each sample. A region spanning 9 mm of the articulating surface of the femur and 6.5 mm of the tibia was selected for segmenting out the cartilage and subchondral bone in the anterior–posterior direction. After the segmentation process, the voxel count associated with each of the regions of interest was calculated using VHLab. The voxel count was then multiplied by the cubic voxel resolution to obtain volume measurements for the different ROI. Cartilage thickness was calculated using SCIRun (Scientific Computing and Imaging Institute, University of Utah). The distance from the bone to the outer surface of the articulating cartilage was calculated. An image was generated that translates the distances into a color map for viewing the thickness along the length of the cartilage. […]

[2] = tested on: rabbits subjected to anterior cruciate ligament transection (ACLT); assay: Rabbit ACLT study, contrast-enhanced µCT of articular cartilage; assay type: in vivo
Excerpt: as §1, §2, §3, §4

## C#C[C@@H]1CN(C(=O)[C@H](CC(C)C)NC(=O)c2ccc(-c3nc(N4CCN(C)CC4)sc3F)cc2)[C@@H]2C(=O)CO[C@H]12 [MIV-711]
[1]; Femur, high dose 100 µmol/kg
  Subchondral bone plate Thickness, Lateral: 321 ± 11 µm
  Subchondral bone plate Thickness, Medial: 388 ± 9 µm
  Subchondral bone plate Thickness, Total: 353 ± 8 µm
  Subchondral bone plate Volume, Lateral: 25.7 ± 1.2* mm^3
  Subchondral bone plate Volume, Medial: 29.9 ± 1.0 mm^3
  Subchondral bone plate Volume, Total: 55.6 ± 2.0* mm^3
[1]; Femur, low dose 30 µmol/kg
  Subchondral bone plate Thickness, Lateral: 316 ± 10 µm
  Subchondral bone plate Thickness, Medial: 380 ± 13 µm
  Subchondral bone plate Thickness, Total: 347 ± 10 µm
  Subchondral bone plate Volume, Lateral: 25.0 ± 0.6* mm^3
  Subchondral bone plate Volume, Medial: 29.4 ± 0.8 mm^3
  Subchondral bone plate Volume, Total: 54.4 ± 0.8* mm^3
[1]; Tibia, high dose 100 µmol/kg
  Subchondral bone plate Thickness, Lateral: 353 ± 12 µm
  Subchondral bone plate Thickness, Medial: 462 ± 13 µm
  Subchondral bone plate Thickness, Total: 401 ± 8 µm
  Subchondral bone plate Volume, Lateral: 20.7 ± 1.0* mm^3
  Subchondral bone plate Volume, Medial: 20.6 ± 0.5 mm^3
  Subchondral bone plate Volume, Total: 41.2 ± 0.9* mm^3
[1]; Tibia, low dose 30 µmol/kg
  Subchondral bone plate Thickness, Lateral: 326 ± 18 µm
  Subchondral bone plate Thickness, Medial: 452 ± 15 µm
  Subchondral bone plate Thickness, Total: 383 ± 15 µm
  Subchondral bone plate Volume, Lateral: 18.5 ± 1.3* mm^3
  Subchondral bone plate Volume, Medial: 20.6 ± 0.8 mm^3
  Subchondral bone plate Volume, Total: 39.1 ± 2.0* mm^3
[1]; low dose 30 µmol/kg
  femur subchondral bone plate total thickness, difference vs. sham: 0%
  tibia subchondral bone plate total thickness, difference vs. sham: 0%
[2]; Femur, high dose 100 µmol/kg
  Cartilage Thickness, Lateral: 251 ± 12 µm
  Cartilage Thickness, Medial: 306 ± 12 µm
  Cartilage Thickness, Total: 278 ± 11 µm
  Cartilage Volume, Lateral: 23.0 ± 1.1 mm^3
  Cartilage Volume, Medial: 27.2 ± 1.6 mm^3
  Cartilage Volume, Total: 50.2 ± 2.2 mm^3
[2]; Femur, low dose 30 µmol/kg
  Cartilage Thickness, Lateral: 257 ± 13 µm
  Cartilage Thickness, Medial: 310 ± 18 µm
  Cartilage Thickness, Total: 283 ± 15 µm
  Cartilage Volume, Lateral: 23.1 ± 1.1 mm^3
  Cartilage Volume, Medial: 27.5 ± 2.6 mm^3
  Cartilage Volume, Total: 50.6 ± 3.5 mm^3
[2]; Tibia, high dose 100 µmol/kg
  Cartilage Thickness, Lateral: 369 ± 24 µm
  Cartilage Thickness, Medial: 539 ± 25 µm
  Cartilage Thickness, Total: 445 ± 22 µm
  Cartilage Volume, Lateral: 21.6 ± 2.0 mm^3
  Cartilage Volume, Medial: 25.3 ± 1.2 mm^3
  Cartilage Volume, Total: 46.9 ± 3.1 mm^3
[2]; Tibia, low dose 30 µmol/kg
  Cartilage Thickness, Lateral: 349 ± 18 µm
  Cartilage Thickness, Medial: 533 ± 26 µm
  Cartilage Thickness, Total: 432 ± 20 µm
  Cartilage Volume, Lateral: 19.6 ± 1.3 mm^3
  Cartilage Volume, Medial: 24.9 ± 1.5 mm^3
  Cartilage Volume, Total: 44.5 ± 2.6 mm^3
